Test results: patent US10670605B2, “Cysteine reactive probes and uses thereof” (The Scripps Research Institute, priority 2015, dated 2020)

Key:
[1] = tested on: protein targets in MDA-MB-231 cells; assay: Whole protein capture with click probes (SILAC proteomics), native vs heat denatured; assay type: binding, human; conditions: proteins liganded by parent fragment (3 / 14) and enriched by click probe (19 / 18)
Experimental: Protein enrichment by 18 and 19 was measured by whole protein capture of isotopically-SILAC labeled MDA-MB-231 cells using quantitative (SILAC) proteomics.

ACAT1 C126 (P24752) = target: T1, ACAT1 C126 (P24752) (Homo sapiens, UniProt P24752); assay: Competitive isoTOP-ABPP, cell lysates; assay type: binding; conditions: 500 μm, in-vitro_ramos_231
T1 sequence (P24752 34-427): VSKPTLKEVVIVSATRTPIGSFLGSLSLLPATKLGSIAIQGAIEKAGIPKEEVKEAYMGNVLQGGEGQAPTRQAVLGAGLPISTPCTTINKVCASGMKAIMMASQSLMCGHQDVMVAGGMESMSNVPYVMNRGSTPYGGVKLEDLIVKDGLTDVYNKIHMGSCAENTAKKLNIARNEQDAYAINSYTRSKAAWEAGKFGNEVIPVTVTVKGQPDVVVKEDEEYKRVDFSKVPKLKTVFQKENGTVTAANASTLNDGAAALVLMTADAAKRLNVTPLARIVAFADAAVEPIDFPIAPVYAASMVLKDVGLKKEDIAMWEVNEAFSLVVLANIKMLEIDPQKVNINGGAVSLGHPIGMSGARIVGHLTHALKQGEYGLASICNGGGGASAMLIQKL

ACAT1 C413 (P24752) = target: T2, ACAT1 C413 (P24752) (Homo sapiens, UniProt P24752); assay: Competitive isoTOP-ABPP, cell lysates; assay type: binding; conditions: 500 μm, in-vitro_ramos_231
T2 sequence (P24752 34-427): T1 sequence (P24752 34-427)

GSTP1 C48 (P09211) = GSTP1 C48 (P09211) (Homo sapiens, UniProt P09211); assay: Competitive isoTOP-ABPP, cell lysates; assay type: binding; conditions: 500 μm, in-vitro_ramos_231;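 note: Heavy/light ratio DMSO over fragment-treated so higher means more cysteine engagement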
Experimental: (§1) TEV digests were pressure loaded onto a 250 μm (inner diameter) fused silica capillary column packed with C18 resin (Aqua 5 μm, Phenomenex). The samples were analyzed by multidimensional liquid chromatography tandem mass spectrometry (MudPIT), using an LTQ-Velos Orbitrap mass spectrometer (Thermo Scientific) coupled to an Agilent 1200-series quaternary pump. The peptides were eluted onto a biphasic column with a 5 μm tip (100 μm fused silica, packed with C18 (10 cm) and bulk strong cation exchange resin (3 cm, SCX, Phenomenex,)) in a 5-step MudPIT experiment, using 0%, 30%, 60%, 90%, and 100% salt bumps of 500 mM aqueous ammonium acetate and using a gradient of 5-100% buffer B in buffer A (buffer A: 95% water, 5% acetonitrile, 0.1% formic acid; buffer B: 5% water, 95% acetonitrile, 0.1% formic acid) as has been described in Weerapana et al. Nat Protoc 2:1414-1425 (2007). Data was collected in data-dependent acquisition mode with dynamic exclusion enabled (20 s, repeat of 2). One full MS (MS1) scan (400-1800 m/z) was followed by 30 MS2 scans (ITMS) of the nth most abundant ions.
(§2) The ratios of heavy/light for each unique peptide (DMSO/compound treated; isoTOP-ABPP ratios, R values) were quantified with in-house CIMAGE software, using default parameters (3 ms s per peak and signal to noise threshold 2.5). Site-specific engagement of electrophilic fragments was assessed by blockade of IA-alkyne probe labeling. […] Ratios for unique peptide entries were calculated for each experiment; overlapping peptides with the same modified cysteine (e.g. different charge states, MudPIT chromatographic steps or tryptic termini) were grouped together and the median ratio was reported as the final ratio (R). The peptide ratios reported by CIMAGE were further filtered to ensure the removal or correction of low quality ratios in each individual dataset. The quality filters applied were the following: removal of half tryptic peptides; for ratios with high standard deviations from the median (90% of the median or above) the lowest ratio was taken instead of the median; removal of peptides with R=20 and only a single ms2 event triggered during the elution of the parent ion; manual annotation of all the peptides with ratios of 20, removing any peptides with low-quality elution profiles that remained after the previous curation steps. Proteome reactivity values for individual fragments were computed as the percentage of the total quantified cysteine-containing peptides with R values≥4 (defined as liganded cysteines) for each replicate experiment and the final proteome reactivity value was calculated as the mean for all replicate experiments for each fragment from both MDA-MB-231 and Ramos cellular proteomes.
(§3) Biological replicates of the same compound and cell-line were averaged if the standard deviation was below 60% of the mean; otherwise the lowest value of the ratio set was taken.

CASP8 C360 (Q14790) = CASP8 C360 (Q14790) (Homo sapiens, UniProt Q14790); assay: Competitive isoTOP-ABPP, cell lysates; assay type: binding
Experimental: as §1, §2, §3

PRMT1 C109 (Q99873) = PRMT1 C109 (Q99873) (Homo sapiens, UniProt Q99873); assay: Competitive isoTOP-ABPP, cell lysates; assay type: binding; conditions: 500 μm, in-vitro_ramos_231;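 note: Heavy/light ratio DMSO over fragment-treated so higher means more cysteine engagement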
Experimental: as §1, §2, §3

IDH1 C269 (O75874) = IDH1 C269 (O75874) (Homo sapiens, UniProt O75874); assay: Competitive isoTOP-ABPP, cell lysates; assay type: binding; conditions: 500 μm, in-vitro_ramos_231
Experimental: as §1, §2, §3

PDIA6 C55 (Q15084) = target: T3, PDIA6 C55 (Q15084) (Homo sapiens, UniProt Q15084); assay: Competitive isoTOP-ABPP, cell lysates; assay type: binding; conditions: 500 μm, in-vitro_ramos_231
T3 sequence (Q15084 20-440): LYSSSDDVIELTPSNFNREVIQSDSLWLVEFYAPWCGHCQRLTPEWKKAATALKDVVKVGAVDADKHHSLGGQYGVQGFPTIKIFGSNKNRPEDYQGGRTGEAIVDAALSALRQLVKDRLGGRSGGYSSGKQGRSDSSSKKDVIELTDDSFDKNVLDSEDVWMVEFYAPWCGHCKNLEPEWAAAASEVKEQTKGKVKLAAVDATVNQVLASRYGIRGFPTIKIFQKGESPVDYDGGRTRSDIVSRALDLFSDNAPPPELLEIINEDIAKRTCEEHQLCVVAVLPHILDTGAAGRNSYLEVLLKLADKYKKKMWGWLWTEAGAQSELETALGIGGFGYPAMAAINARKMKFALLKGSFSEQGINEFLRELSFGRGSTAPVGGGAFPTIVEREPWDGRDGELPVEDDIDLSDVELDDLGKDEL
Experimental: as §1, §2, §3

PDIA6 C190 (Q15084) = target: T4, PDIA6 C190 (Q15084) (Homo sapiens, UniProt Q15084); assay: Competitive isoTOP-ABPP, cell lysates; assay type: binding; conditions: 500 μm, in-vitro_ramos_231;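 note: Heavy/light ratio DMSO over fragment-treated so higher means more cysteine engagement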
T4 sequence (Q15084 20-440): T3 sequence (Q15084 20-440)
Experimental: as §1, §2, §3

MLTK C22 (Q9NYL2) = MLTK C22 (Q9NYL2) (Homo sapiens, UniProt Q9NYL2); assay: Competitive isoTOP-ABPP, cell lysates; assay type: binding; conditions: 500 μm, in-vitro_ramos_231
Experimental: as §1, §2, §3

DCUN1D1 C115 (Q96GG9) = DCUN1D1 C115 (Q96GG9) (Homo sapiens, UniProt Q96GG9); assay: Competitive isoTOP-ABPP, cell lysates; assay type: binding; conditions: 500 μm, in-vitro_ramos_231
Experimental: as §1, §2, §3

STAT3 C259 (P40763) = STAT3 C259 (P40763) (Homo sapiens, UniProt P40763); assay: Competitive isoTOP-ABPP, cell lysates; assay type: binding; conditions: 500 μm, in-vitro_ramos_231
Experimental: as §1, §2, §3

XPO1 C34 (O14980) = XPO1 C34 (O14980) (Homo sapiens, UniProt O14980); assay: Competitive isoTOP-ABPP, cell lysates; assay type: binding; conditions: 500 μm, in-vitro_ramos_231
Experimental: as §1, §2, §3

ACAT1 C196 (P24752) = target: T5, ACAT1 C196 (P24752) (Homo sapiens, UniProt P24752); assay: Competitive isoTOP-ABPP, cell lysates; assay type: binding; conditions: 500 μm, in-vitro_ramos_231
T5 sequence (P24752 34-427): T1 sequence (P24752 34-427)

ACAT1 C119 (P24752) = target: T6, ACAT1 C119 (P24752) (Homo sapiens, UniProt P24752); assay: Competitive isoTOP-ABPP, cell lysates; assay type: binding; conditions: 500 μm, in-vitro_ramos_231
T6 sequence (P24752 34-427): T1 sequence (P24752 34-427)

pro-CASP8 = target: T7, pro-CASP8 (Homo sapiens, UniProt Q14790, D374A/D384A); assay: Click probe 61 labeling of pro-CASP8 and its competition; assay type: binding
T7 construct: a truncated CASP8 (residues 217-479) without the CARD domain; His6 (C); made in house; host or cells: E. coli BL21(DE3)pLysS
T7 sequence (Q14790 217-479 D374A/D384A): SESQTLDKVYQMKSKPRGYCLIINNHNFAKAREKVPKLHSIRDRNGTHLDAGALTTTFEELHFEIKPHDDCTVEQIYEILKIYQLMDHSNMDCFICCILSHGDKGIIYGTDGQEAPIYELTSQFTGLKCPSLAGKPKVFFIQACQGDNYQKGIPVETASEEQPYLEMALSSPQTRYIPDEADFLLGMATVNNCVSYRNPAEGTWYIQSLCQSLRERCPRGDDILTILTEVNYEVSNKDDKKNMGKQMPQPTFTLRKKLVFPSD

Sequence of CASP8 C360 (Q14790) (Q14790 whole entry): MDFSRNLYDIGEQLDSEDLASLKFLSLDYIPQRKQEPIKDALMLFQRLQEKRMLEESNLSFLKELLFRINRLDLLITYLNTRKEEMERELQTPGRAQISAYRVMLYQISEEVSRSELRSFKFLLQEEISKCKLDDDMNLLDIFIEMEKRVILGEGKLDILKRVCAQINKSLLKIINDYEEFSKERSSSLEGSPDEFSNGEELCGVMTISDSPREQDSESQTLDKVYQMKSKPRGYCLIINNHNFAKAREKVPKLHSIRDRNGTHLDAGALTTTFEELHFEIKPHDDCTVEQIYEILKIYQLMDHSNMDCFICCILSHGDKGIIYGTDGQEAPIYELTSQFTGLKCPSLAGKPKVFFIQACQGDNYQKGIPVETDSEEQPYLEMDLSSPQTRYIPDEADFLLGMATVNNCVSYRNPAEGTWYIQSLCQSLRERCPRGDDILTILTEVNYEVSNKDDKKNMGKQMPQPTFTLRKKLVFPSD
Sequence of STAT3 C259 (P40763) (P40763 whole entry): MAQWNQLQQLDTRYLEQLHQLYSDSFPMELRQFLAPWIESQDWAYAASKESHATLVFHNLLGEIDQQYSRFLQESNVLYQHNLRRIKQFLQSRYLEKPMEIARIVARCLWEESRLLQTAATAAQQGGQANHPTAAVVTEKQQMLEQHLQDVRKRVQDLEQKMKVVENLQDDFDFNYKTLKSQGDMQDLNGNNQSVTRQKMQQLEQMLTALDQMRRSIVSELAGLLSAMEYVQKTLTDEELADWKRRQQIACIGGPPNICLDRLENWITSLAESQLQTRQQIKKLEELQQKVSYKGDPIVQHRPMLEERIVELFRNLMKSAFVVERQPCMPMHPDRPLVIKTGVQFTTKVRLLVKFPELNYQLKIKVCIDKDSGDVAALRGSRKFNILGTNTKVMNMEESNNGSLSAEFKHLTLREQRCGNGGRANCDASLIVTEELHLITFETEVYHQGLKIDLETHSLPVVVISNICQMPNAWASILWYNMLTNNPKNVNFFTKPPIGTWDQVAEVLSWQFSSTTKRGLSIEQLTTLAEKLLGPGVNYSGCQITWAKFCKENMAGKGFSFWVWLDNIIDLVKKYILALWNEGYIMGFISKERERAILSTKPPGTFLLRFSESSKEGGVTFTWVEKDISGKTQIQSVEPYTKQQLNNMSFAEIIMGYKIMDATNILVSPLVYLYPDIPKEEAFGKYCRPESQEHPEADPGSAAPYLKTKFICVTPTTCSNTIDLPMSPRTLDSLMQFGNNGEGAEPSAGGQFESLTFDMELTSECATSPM
Sequence of DCUN1D1 C115 (Q96GG9) (Q96GG9 whole entry): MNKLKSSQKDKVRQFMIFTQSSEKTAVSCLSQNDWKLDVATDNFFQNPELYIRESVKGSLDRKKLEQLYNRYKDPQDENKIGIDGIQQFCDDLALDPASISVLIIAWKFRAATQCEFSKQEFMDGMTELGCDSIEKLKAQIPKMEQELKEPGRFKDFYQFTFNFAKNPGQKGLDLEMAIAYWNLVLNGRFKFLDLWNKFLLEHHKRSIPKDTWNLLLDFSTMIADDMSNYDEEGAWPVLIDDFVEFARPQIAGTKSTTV
Sequence of MLTK C22 (Q9NYL2) (Q9NYL2 whole entry): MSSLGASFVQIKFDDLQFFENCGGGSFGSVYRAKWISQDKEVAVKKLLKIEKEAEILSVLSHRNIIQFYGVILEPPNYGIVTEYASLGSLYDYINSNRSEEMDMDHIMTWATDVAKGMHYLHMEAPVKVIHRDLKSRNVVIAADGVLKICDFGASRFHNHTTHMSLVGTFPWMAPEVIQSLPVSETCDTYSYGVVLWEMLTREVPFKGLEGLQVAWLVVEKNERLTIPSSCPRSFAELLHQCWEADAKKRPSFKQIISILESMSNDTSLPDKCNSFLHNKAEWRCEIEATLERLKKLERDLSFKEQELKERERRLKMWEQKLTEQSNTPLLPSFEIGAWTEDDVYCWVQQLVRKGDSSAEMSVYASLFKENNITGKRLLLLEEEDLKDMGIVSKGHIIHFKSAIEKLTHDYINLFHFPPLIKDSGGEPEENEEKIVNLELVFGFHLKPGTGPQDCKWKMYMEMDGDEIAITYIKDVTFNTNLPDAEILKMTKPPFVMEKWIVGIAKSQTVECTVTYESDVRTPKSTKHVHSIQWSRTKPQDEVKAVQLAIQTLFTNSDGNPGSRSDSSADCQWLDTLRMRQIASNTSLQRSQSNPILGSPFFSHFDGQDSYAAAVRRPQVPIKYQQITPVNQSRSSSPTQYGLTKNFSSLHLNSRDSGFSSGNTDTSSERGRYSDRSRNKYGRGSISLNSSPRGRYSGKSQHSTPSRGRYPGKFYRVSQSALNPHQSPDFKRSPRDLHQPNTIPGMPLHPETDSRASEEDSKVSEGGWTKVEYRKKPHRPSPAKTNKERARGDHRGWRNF
Sequence of GSTP1 C48 (P09211) (P09211 whole entry, the tested form may be a part): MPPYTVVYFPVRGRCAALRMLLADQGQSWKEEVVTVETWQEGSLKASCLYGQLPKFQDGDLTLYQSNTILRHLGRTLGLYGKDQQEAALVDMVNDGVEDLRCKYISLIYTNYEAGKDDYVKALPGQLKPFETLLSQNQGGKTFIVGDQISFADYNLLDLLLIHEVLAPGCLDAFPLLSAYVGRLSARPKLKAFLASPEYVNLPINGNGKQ
Sequence of PRMT1 C109 (Q99873) (Q99873 whole entry, the tested form may be a part): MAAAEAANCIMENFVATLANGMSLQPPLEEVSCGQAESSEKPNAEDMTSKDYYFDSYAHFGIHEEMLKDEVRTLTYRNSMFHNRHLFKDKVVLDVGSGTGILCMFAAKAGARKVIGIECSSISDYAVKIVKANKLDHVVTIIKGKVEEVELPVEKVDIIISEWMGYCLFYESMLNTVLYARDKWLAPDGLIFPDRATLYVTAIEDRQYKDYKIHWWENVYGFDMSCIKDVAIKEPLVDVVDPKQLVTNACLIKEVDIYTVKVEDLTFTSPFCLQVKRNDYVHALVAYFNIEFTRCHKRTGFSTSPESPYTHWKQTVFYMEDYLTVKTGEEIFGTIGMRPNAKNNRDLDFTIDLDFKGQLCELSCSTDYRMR
Sequence of IDH1 C269 (O75874) (O75874 whole entry): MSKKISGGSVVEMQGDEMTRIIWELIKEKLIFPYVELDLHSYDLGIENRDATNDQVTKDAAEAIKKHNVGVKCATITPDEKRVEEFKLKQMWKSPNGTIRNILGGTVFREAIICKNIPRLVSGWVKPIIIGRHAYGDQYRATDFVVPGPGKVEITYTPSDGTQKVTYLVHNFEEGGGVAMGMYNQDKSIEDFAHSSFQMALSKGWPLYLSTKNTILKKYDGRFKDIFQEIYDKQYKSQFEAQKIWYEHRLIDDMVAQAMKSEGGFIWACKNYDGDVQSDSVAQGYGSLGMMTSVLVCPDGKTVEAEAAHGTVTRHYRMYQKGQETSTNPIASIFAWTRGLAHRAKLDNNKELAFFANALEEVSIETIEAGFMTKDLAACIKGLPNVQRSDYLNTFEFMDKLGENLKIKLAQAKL
Sequence of XPO1 C34 (O14980) (O14980 whole entry): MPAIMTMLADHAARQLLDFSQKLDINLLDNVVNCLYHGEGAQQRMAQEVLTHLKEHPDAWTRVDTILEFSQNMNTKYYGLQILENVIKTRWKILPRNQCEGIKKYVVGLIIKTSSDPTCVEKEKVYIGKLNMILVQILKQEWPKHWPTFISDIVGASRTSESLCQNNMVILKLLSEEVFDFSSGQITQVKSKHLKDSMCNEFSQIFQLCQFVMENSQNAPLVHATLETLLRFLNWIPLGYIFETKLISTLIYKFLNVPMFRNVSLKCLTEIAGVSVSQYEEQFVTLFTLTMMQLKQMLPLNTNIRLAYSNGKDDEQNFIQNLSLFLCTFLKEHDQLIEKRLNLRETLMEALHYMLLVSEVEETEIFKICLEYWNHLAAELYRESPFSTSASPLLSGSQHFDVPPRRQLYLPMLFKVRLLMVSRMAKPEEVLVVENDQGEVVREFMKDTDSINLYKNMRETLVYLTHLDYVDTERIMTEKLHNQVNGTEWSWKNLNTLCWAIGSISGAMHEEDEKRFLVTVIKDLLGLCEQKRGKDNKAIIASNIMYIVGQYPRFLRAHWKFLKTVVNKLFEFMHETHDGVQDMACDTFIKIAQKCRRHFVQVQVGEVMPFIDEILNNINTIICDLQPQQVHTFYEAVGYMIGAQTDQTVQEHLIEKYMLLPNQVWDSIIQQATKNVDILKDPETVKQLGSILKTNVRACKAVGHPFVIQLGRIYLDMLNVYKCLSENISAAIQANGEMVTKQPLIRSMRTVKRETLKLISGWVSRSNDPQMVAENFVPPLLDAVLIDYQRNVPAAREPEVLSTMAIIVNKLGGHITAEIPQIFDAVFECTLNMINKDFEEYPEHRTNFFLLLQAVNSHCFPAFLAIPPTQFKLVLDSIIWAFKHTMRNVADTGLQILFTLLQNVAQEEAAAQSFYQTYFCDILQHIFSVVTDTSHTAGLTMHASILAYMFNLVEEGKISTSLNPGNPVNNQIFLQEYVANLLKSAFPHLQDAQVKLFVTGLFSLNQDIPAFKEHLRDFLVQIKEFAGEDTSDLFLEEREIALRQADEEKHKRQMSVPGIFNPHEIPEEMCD

## C#CCCCCNC(=O)c1cc(NC(=O)CCl)cc(C(F)(F)F)c1 [compound 19]
[1]
  percentage of quantified protein targets sensitive to heat denaturation: 64%

## Cc1ncc(CO)c(CNC(=O)CCl)c1O [compound 54]
ACAT1 C126 (P24752)
  isoTOP-ABPP reactivity profile ratio, P24752_C126: 1.1
ACAT1 C413 (P24752)
  isoTOP-ABPP reactivity profile ratio, P24752_C413: 1.1
GSTP1 C48 (P09211)
  isoTOP-ABPP reactivity profile ratio, P09211_C48: 1.3
CASP8 C360 (Q14790); 500 μm, in-vitro_ramos_231
  isoTOP-ABPP reactivity profile ratio, Q14790_C360: 1.2
PRMT1 C109 (Q99873)
  isoTOP-ABPP reactivity profile ratio, Q99873_C109: 1.2
IDH1 C269 (O75874)
  isoTOP-ABPP reactivity profile ratio, O75874_C269: 1.1
PDIA6 C55 (Q15084)
  isoTOP-ABPP reactivity profile ratio, Q15084_C55: 1.2
PDIA6 C190 (Q15084)
  isoTOP-ABPP reactivity profile ratio, Q15084_C190: 1.2
MLTK C22 (Q9NYL2)
  isoTOP-ABPP reactivity profile ratio, Q9NYL2_C22: 1.1
DCUN1D1 C115 (Q96GG9)
  isoTOP-ABPP reactivity profile ratio, Q96GG9_C115: 1.1
STAT3 C259 (P40763)
  isoTOP-ABPP reactivity profile ratio, P40763_C259: 1.3
XPO1 C34 (O14980)
  isoTOP-ABPP reactivity profile ratio, O14980_C34: 1.1
ACAT1 C196 (P24752)
  isoTOP-ABPP reactivity profile ratio, P24752_C196: 1.1
ACAT1 C119 (P24752)
  isoTOP-ABPP reactivity profile ratio, P24752_C119: 1.0

## C#Cc1cccc(C(=O)N2CCC(N(C(=O)CCl)c3ccccc3)CC2)c1 [compound 61]
pro-CASP8
  direct labeling of pro-CASP8 by click probe: strongly labeled
CASP8 C360 (Q14790); Jurkat cell lysates
  R value for direct labeling of C360 (10 versus 100 μM probe): 2
